Measured values published in patent publication US4710578A, “Isothiuronium salts” (Peremartoni Vegyipari Vallalat, priority 1984, dated 1987).
Where two headings read alike, the source gives them in different places.

Legend:
human lymphocytes = assay: Immunological tests (overall; NK and K cell activity); type: cell-based
Protocol: Lymphocytes were separated on Ficoll-Uromiro (Boyum 1968) gradient from the venal blood of healthy donors and patients suffering from malignant lymphoma and metastatizing solid tumours, respectively. When selecting the patients belonging to the latter group, the decreased ADCC and NK activity was taken into consideration. The phagocytes were removed by treatment with iron powder and a magnet.
ADCC was determined according to the method of Perlmann and Perlmann (1970) with minor modifications (Lang et al, 1981). Chicken erythrocytes labelled with 10^5 51 Cr and coated with anti-chicken erythrocyte rabbit-serum were incubated with the lymphocytes for 4 hours at 37° C. The reaction having been stopped the activity of the supernatant of the centrifuged cells was determined in a gamma-counter. The rate of chrome-release was expressed as the cytotoxicity index (CI %). This value was calculated as described in one of our earlier publications (Lang et al., 1980)--(see Table I).
NK activity was determined by the method of Jondal and Pross (1975) by using minor modifications (Lang et al, 1981). K-562 tumor cells labelled by ^51 Cr were incubated with effector cells in a TC 199 liquid nutrient medium comprising 10% of decomplemented calf serum. The reaction having been stopped the radioactivity of the superntant of the centrifuged cells (chrome release) was counted in a gamma-counter. The killing of the tumor cells (cytotoxicity index %) was expressed as the difference of the test release and spontaneous release.
Statistical calculations were carried out by means of a mono-sample test. […] The said effect may be so strong that cytotoxic activity decreased to one-tenth of the original value may be restored to the oroginal level (Table II).

tumor cells = assay: Testing of antitumor effect (overall)
NK-yl ascites tumor = assay: Combinations with known cytostatic agents in NK-ly ascites tumor; type: in vivo, CFLP mice; conditions: with cyclophosphamide, carnomustine, degranol, dibromo dulcitol or dibromo mannitol
[1] = test system: neutrophylic granulocytes and limphocytes; conditions: mouse, in vivo, po
[2] = test system: human polymorphonuclear leucocytes; assay: Direct /random/ migration of human polymorphonuclear leucocytes on agarose microdrops; type: cell-based; conditions: for Effect on migration at a higher dose: 10 μg/ml; for Direct (random) migration of polymorphonuclear cells / Optimal dose for increase of migration: healthy donors
Protocol: Spontaneous (random) migration of leukocytes was measured on agarose microdrops according to the method of McCoy et al (1977) by carrying out some minor modifications (Kalmar and Gergely, 1982).
[…] agarose drops (0.2%) were placed on migration plates (Greiner, German Federal Republic). TC 199 liquid nutrient medium was added and the plates were air-tightly closed. After 24 hours the migration area were measured under a stereomicroscope. The migration area were expressed in mm^2.

[3] = test system: human bone metastasis of mammal tumors, ovary tumors and pancreas tumors; assay: Human tumors, oral treatment for 6-12 months; type: in vivo; conditions: oral daily dose 30-120 mg (0.5-2 mg/kg)
[4] = test system: P-388 mouse lymphoma cells; assay: In vitro antitumor effect, P-388; type: cell-based; conditions: 400 μg/ml
[5] = test system: neutrophilic granulocytes, lymphocytes and macrophages; assay: Preliminary rapid test: immunostimulant effect; type: in vivo, CFLP male mice; set-up: key: 0: if there is no difference in the number and activity of the said cells, no increase can be declared over the control; medium: Medium effect is observed if the increase of cell number or activity over the control amounts to 20%; The effect is strong if the increase of the cell number and activity of the immune system is more than 20% higher than the control; conditions: oral, one-tenth of LD50; 24 hours
NK-ly-ascites lymphoma = NK-ly-ascites lymphoma in vivo; set-up: species or system CFLP male mice; conditions: for Activity against NK-ly-ascites tumor: concentration below one-tenth of the LD50 value; for Survival rate and lifetime: dose-dependant
[6] = test system: hemodinamical parameters and respiration function of cats
ticks (Ixodes ricinus) = assay: Anti-parasital effect in dogs infected by ticks; type: in vivo; conditions: oral 1-2 mg/kg; six-eight hours after administration
Protocol: Compounds of the Formula I were added orally to dogs infected by ticks (Ixodes ricinus) for three days. Thus N-aminoiminomethyl-S-allyl-isothiuronium hydrochloride was administered in an oral dose of 1-2 mg/kg and the killing rate of ticks was registered.

heart muscle = assay: Cardioprotective effect in isoprenaline necrosis; type: in vivo, male CFY rats; conditions: 1-5 mg/kg i.p. or 10-50 mg/kg p.o.; isoproterenol 5 mg/kg i.p.; two weeks
Protocol: 5 mg/kg of isoproterenol are i.p. administered to male CFY rats (weight 250-300 g). In each group 10 animals were used. One part of the animals served as control and the other were treated with a 1-5 mg/kg i.p. or 10-50 mg/kg p.o. dose of compound No. 14. After two weeks the hearts were subjected to hystological evaluation. The ratio of necrotized and intact area of heart muscle were determined.

ascites lymphoma cells = assay: Preliminary rapid test: antitumor effect; type: in vivo, CFLP male mice; conditions: oral, one-tenth of LD50; 24 hours
[7] = in vivo, 24 h

Compound	LD50 at 24 h (in vivo; ip)	LD50 at 24 h (in vivo; po)	Immunostimulant effect (human lymphocytes)	Increase of normal and strongly decreased NK and K cell activity (human lymphocytes)	Antitumor effect (tumor cells)	Antitumor effect of combination vs cytostatic agent alone (NK-yl ascites tumor)	Immunodepression of combination vs cytostatic agent alone (NK-yl ascites tumor)	Toxic effect [1]	Effect on migration at a higher dose [2]	Direct (random) migration of polymorphonuclear cells [2]	Optimal dose for increase of migration [2]	Immunostimulant effect [5]	Activity against NK-ly-ascites tumor (NK-ly-ascites lymphoma)	Survival rate and lifetime (NK-ly-ascites lymphoma)	other results
C=CCSC(=N)NC(=N)N [Example 11, N-Aminoiminomethyl-S-Allyl-Isothiuronium Bromide]	320 ± 30 mg/kg	2380 ± 320 mg/kg	outstanding immunostimulant effect	significant increase of normal and strongly decreased NK and K cell activity, even above the normal level	outstanding antitumor effect	the antitumor effect was strengthened	immunodepression decreased	0	less expressed	increased	1.0 µg/mL	strong (The effect is strong if the increase of the cell number and activity of the immune system is more than 20% higher than the control)	active agains Nk-ly-ascites tumor in a concentration below one-tenth of the LD50 value	increase survival rate and lifetime in a dose-dependant manner	Clinical outcome in human tumors [3]: significant improvement or reconvalescence; Activity on P-388 cells on increasing the concentration [4]: the activity does not become stronger; Cytotoxical dose range (NK-ly-ascites lymphoma; mouse, in vivo): 250 to 500 mg/kg; Hemodinamical parameters and respiration function ([6]; 10 mg/kg i.v., opened and closed chest): does not considerably effect the hemodinamical parameters and respiration function; Left ventricular pressure and frequency effects ([6]; 50 mg/kg i.v.): significant and long-lasting; Hemodynamical changes ([6]; 100 mg/kg i.v.): strong hemodynamical changes were observed; Left ventricular pressure and frequency ([6]; above 10 mg/kg i.v.): decreased; Lethality ([6]; in vivo): the cats did not perish
C=CCSC(=N)NC(=N)N [Example 12, N-Aminoiminomethyl-S-Allyl-Isothiuronium Chloride]	–	–	–	–	–	–	–	–	–	–	–	–	–	–	Killing rate of ticks (ticks (Ixodes ricinus)): all ticks were killed; Necrosis of heart muscle (heart muscle): significant decrease of necrosis
N=C(N)NC(=N)SCCO [Example 16, N-Aminoiminomethyl-S-(2-Hydroxyethyl)-Isothiuronium Chloride]	1680 ± 210 mg/kg	3280 ± 460 mg/kg	outstanding immunostimulant effect	significant increase of normal and strongly decreased NK and K cell activity, even above the normal level	–	the antitumor effect was strengthened	immunodepression decreased	0	–	–	–	strong (The effect is strong if the increase of the cell number and activity of the immune system is more than 20% higher than the control)	–	–	–
N=C(N)NC(=N)SCc1ccccc1 [Example 18, N-Aminoiminomethyl-S-Benzyl-Thiuronium Chloride]	–	2420 ± 260 mg/kg	–	–	–	–	–	0	–	–	–	0	–	–	Antitumor effect (ascites lymphoma cells): increase
N-Aminoiminomethyl-S-(1-Chloro-2-Hydroxy-Propyl)-Isothiuronium Bromide [Example 14]	–	–	–	–	outstanding antitumor effect	the antitumor effect was strengthened	immunodepression decreased	–	less expressed	increased	1.0 µg/mL	weak	active agains Nk-ly-ascites tumor in a concentration below one-tenth of the LD50 value	increase survival rate and lifetime in a dose-dependant manner	LD50 [7]: 2380 mg/kg; LD50 ([7]; po): 1240 ± 160 mg/kg
